Common to all, as to format: cell-based
One experiment relates to SKM1. The experiment is described as follows: AraC EC50 in parental and AraC resistant cells. As to conditions: Homo sapiens.
Another experiment deals with KG1. Description: AraC EC50 in parental and AraC resistant cells. As to conditions: Homo sapiens.
The next experiment has as its system HL60. Description: AraC EC50 in parental and AraC resistant cells. As to conditions: Homo sapiens.
A further experiment relates to CAKI. The experiment is described as follows: Pancancer cell line panel viability. As to conditions: 10 µM, 48 h. As to the method: (§1) First, 2 × 10^5 (72 h assays in cell lines (Supplementary File S1)), 3 × 10^5 (48 h assays in cell lines) or 7.5 × 10^5 (primary AML, healthy donor buffy coats) cells per mL were cultured in 96-well plates, and all drugs were added at the indicated concentrations. In α-tocopherol experiments, cells were treated with growing concentrations of α-tocopherol and EDK drugs for 48 h. In the NAC and 3MA experiments, treatment was simultaneous with EDK compounds. In glucose deprivation experiments, cells were cultivated with a standard medium (glucose high, 2 g/L), a standard medium without glucose, or a standard medium with galactose (2 g/L) and without glucose. Cell viability was measured via 7-AAD (eBioscience) exclusion and Hoechst33342 (Sigma-Aldrich, St. Louis, MO, USA) positivity staining via flow cytometry, and the cell count was obtained through volume. In the experiments with the primary cells, analyses were performed inside the blast population as detected via blast gates (CD45^low SSC^int). For solid tumor cell lines, viability was analyzed using CellTiter-Glo® Luminescent Cell Viability Assay (Promega).
(§2) AML cell lines and cell cultures
(§3) Cell lines HL-60 (ACC-3), KG-1 (ACC-14), MonoMac-1 (ACC-252), Kasumi-1 […]
(§4) obtained from DSMZ. Cell lines THP-1 (TIB-202TM), MCF-7 (HTB-22™), MDA- […]
(§5) 3216™) and HS-5 (CRL-11882™) were obtained from ATCC. HBL-2 cell line was kindly supplied by Dr. Pérez-Galán (IDIBAPS, Barcelona, Spain). SKM-1 and U937 were kindly provided by Dr. Marcus Buschbeck (IJC, Badalona, Spain). All cell lines were cultured in the conditions indicated by the providers, and were tested for mycoplasma on a monthly basis.
(§6) All drugs were resuspended in H2O (Thermo Fischer Scientific), DMSO (Sigma-Aldrich) or ethanol (VWR) according to manufacturer’s specifications. - tocopherol, 3-methyladenine (3MA), arsenic trioxide (ATO) and N-acetyl-L-cysteine (NAC) were purchased from Sigma Aldrich. Chloroquine diphosphate was purchased from Merck. Etoposide and ionomycin were purchased from […]
(§7) (1 picture or pasted object on this page, not shown here)

The test system of another experiment is M14. Description: Pancancer cell line panel viability. As to conditions: 10 µM, 48 h. As to the method:
as §1, §2, §3, §4, §5, §6, §7

For another experiment, the system named is K562. Description: Pancancer cell line panel viability. As to conditions: 10 µM, 48 h. As to the method: as §1, §2, §3, §4, §5, §6, §7
A further experiment has as its system HCT-15. Description: Pancancer cell line panel viability. As to conditions: 10 µM, 48 h. As to the method:
as §1, §2, §3, §4, §5, §6, §7

The test system of another experiment is SR. Description: Pancancer cell line panel viability. As to conditions: 10 µM, 48 h. As to the method: as §1, §2, §3, §4, §5, §6, §7
Another experiment has as its system PC-3. The experiment is described as follows: Pancancer cell line panel viability. As to conditions: 10 µM, 48 h. As to the method:
as §1, §2, §3, §4, §5, §6, §7

A further experiment concerns A549. The experiment is described as follows: Pancancer cell line panel viability. As to conditions: 10 µM, 48 h. As to the method: as §1, §2, §3, §4, §5, §6, §7
The next experiment has as its system HBL2. Description: Pancancer cell line panel viability. As to conditions: 10 µM, 48 h. As to the method: as §1, §2, §3, §4, §5, §6, §7
For a further experiment, the system named is MOLT4. The experiment is described as follows: Pancancer cell line panel viability. As to conditions: 10 µM, 48 h. As to the method:
as §1, §2, §3, §4, §5, §6, §7

The test system of another experiment is GRANTA. The experiment is described as follows: Pancancer cell line panel viability. As to conditions: 10 µM, 48 h. As to the method:
as §1, §2, §3, §4, §5, §6, §7

A further experiment has as its system NCI. The experiment is described as follows: Pancancer cell line panel viability. As to conditions: 10 µM, 48 h. As to the method:
as §1, §2, §3, §4, §5, §6, §7

In a further experiment the test system is JJN3. Description: Pancancer cell line panel viability. As to conditions: 10 µM, 48 h. As to the method: as §1, §2, §3, §4, §5, §6, §7
For a further experiment, the system named is OVCAR. Description: Pancancer cell line panel viability. As to conditions: 10 µM, 48 h. As to the method:
as §1, §2, §3, §4, §5, §6, §7

For the next experiment, the system named is MCF-7. Description: Pancancer cell line panel viability. As to conditions: 10 µM, 48 h. As to the method:
as §1, §2, §3, §4, §5, §6, §7

The next experiment relates to MDA-MB-231. The experiment is described as follows: Pancancer cell line panel viability. As to conditions: 10 µM, 48 h. As to the method:
as §1, §2, §3, §4, §5, §6, §7

Another experiment concerns DU-145. The experiment is described as follows: Pancancer cell line panel viability. As to conditions: 10 µM, 48 h. As to the method: as §1, §2, §3, §4, §5, §6, §7
The test system of another experiment is HOP62. The experiment is described as follows: Pancancer cell line panel viability. As to conditions: 10 µM, 48 h. As to the method: as §1, §2, §3, §4, §5, §6, §7
The subject of a further experiment is HCT-116. Description: Pancancer cell line panel viability. As to conditions: 10 µM, 48 h. As to the method: as §1, §2, §3, §4, §5, §6, §7
The test system of a further experiment is MDA-MB-435. The experiment is described as follows: Pancancer cell line panel viability. As to conditions: 10 µM, 48 h. As to the method:
as §1, §2, §3, §4, §5, §6, §7

A further experiment concerns ACHN. The experiment is described as follows: Pancancer cell line panel viability. As to conditions: 10 µM, 48 h. As to the method:
as §1, §2, §3, §4, §5, §6, §7

A further experiment has as its system RAMOS. Description: Pancancer cell line panel viability. As to conditions: 10 µM, 48 h. As to the method: as §1, §2, §3, §4, §5, §6, §7
Another experiment deals with Jurkat. Description: Pancancer cell line panel viability. As to conditions: 10 µM, 48 h. As to the method: as §1, §2, §3, §4, §5, §6, §7
The next experiment relates to U266. The experiment is described as follows: Pancancer cell line panel viability. As to conditions: 10 µM, 48 h. As to the method:
as §1, §2, §3, §4, §5, §6, §7

The test system of a further experiment is HEK-293T. Description: Pancancer cell line panel viability (nontumor line). As to conditions: HEK-293T (nontumor); 10 µM; 48 h. As to the method:
as §1, §2, §3, §4, §5, §6, §7

The next experiment has as its system HS-5. The experiment is described as above. As to conditions: HS-5 (nontumor); 10 µM; 48 h. As to the method: as §1, §2, §3, §4, §5, §6, §7
The subject of experiment [1] is intracellular calcium in HL60 cells. The experiment is described as follows: Calcium mobilization assay (Fura2 probe). As to conditions: 10 µM EDK-87/EDK-88, 50 µM chloroquine. As to the method:
1,000 cells of AML cell lines or 50,000 primary cells (both AML and lin-depleted UCB) were treated at the indicated concentration for 18 h, and cultured in 1 mL of MethoCult H4034 Optimum (StemCell Technologies, Vancouver, BC, Canada).
Colonies were screened based on morphology and cellularity at day 7 (cell lines) […]
Calcium mobilization assay
1 x 10^6 cells per mL were loaded for 30’ at 37 °C with the Fura-2-AM probe (Thermo Fisher) at a final 2 µM concentration in pre-warmed calcium- and magnesium-free Hanks BSA solution. Cells were then washed and resuspended in Hanks BSA solution with calcium and magnesium at 3 x 10^5 cells per mL. In parallel, 50µL of drugs in Hanks BSA solution with calcium and magnesium were added to 96-well black wall clear bottom plates and background fluorescence […]
Cells were then added to the plate
(50µL/well) and fluorescence was acquired at indicated timepoints using a Synergy HT Multi-Detection Microplate Reader (BioTek). For the analysis, all values were subtracted their corresponding background fluorescence, and the ratio 340/380 was calculated. Finally, ratios were normalized to vehicle-treated […]
Semi-Quantitative Real Time PCR
On the technique in general: Calcium flux is commonly read through the fluorescence of an indicator in the cells.

Each structure is given as a SMILES string.

By EC50 is commonly meant the concentration giving half of the maximal effect. On to `Nc1ccn([C@@H]2O[C@H](CO)[C@@H](O)[C@@H]2O)c(=O)n1` [AraC, cytarabine], for which the EC50 worked out at 4860 nM in the experiment with SKM1 (SKM-1, SKM1 AraCR (AraC resistant)); 116 nM in the experiment with SKM1 (SKM-1, SKM1 WT); 400 nM in the experiment with KG1 (KG-1, KG1 AraCR (AraC resistant)); 50 nM in the experiment on KG1 (KG-1, KG1 WT); 220 nM with HL60 (HL-60, HL60 AraCR (AraC resistant)); 29.8 nM in the experiment on HL60 (HL-60, HL60 WT).

Turning to `CCN(CC)CCCC(C)Nc1ccnc2cc(Cl)ccc12` (centres unmarked) [CHL, chloroquine, reference compound], the # Live cells refer to control with CAKI amounted to 55%; with M14, 42%; in the experiment on K562 it was 105%; in the experiment on HCT-15 it was 77%; in the experiment with SR it was 23%; in the experiment with PC-3, 63%. Moreover, the # Live cells refer to control in the experiment on A549 came out at 59%; with HBL2, 62%; with MOLT4, 57%; in the experiment on GRANTA it was 51%; in the experiment on NCI it was 69%; with JJN3, 84%. Also, the # Live cells refer to control with OVCAR is 74%; in the experiment on MCF-7, 54%; in the experiment on MDA-MB-231 it was 50%; in the experiment on DU-145, 54%; in the experiment on HOP62, 55%; in the experiment with HCT-116, 80%. Besides, the # Live cells refer to control was 44% in the experiment with MDA-MB-435; 93% in the experiment on ACHN; 115% in the experiment with RAMOS; 94% in the experiment on Jurkat; 67% in the experiment with U266; 67% in the experiment on HEK-293T. The same molecule came in with a # Live cells refer to control in the experiment on HS-5 of 74%. The intracellular calcium mobilization entry in experiment [1] is “failed to mobilize intracellular calcium”.

Source of the values: PMC10047683, “A Novel Family of Lysosomotropic Tetracyclic Compounds for Treating Leukemia” (Cancers, 2023).
